Here are results for ten compounds from ChEMBL document CHEMBL3124831, “Simplified 2-aminoquinoline-based scaffold for potent and selective neuronal nitric oxide synthase inhibition” (J Med Chem, 2014).

Data set [1] in a line: Selectivity ratio of Ki for bovine recombinant eNOS to Ki for rat recombinant nNOS.
Data set [2] is described as follows: Selectivity ratio of Ki for mouse recombinant iNOS to Ki for rat recombinant nNOS.
A further data set concerns the target Nitric oxide synthase 1 (Rattus norvegicus, UniProt P29476).
For data set [3], the target named is T1, Nitric oxide synthase, inducible (Mus musculus, UniProt P29477).
T1 sequence (P29477 whole entry): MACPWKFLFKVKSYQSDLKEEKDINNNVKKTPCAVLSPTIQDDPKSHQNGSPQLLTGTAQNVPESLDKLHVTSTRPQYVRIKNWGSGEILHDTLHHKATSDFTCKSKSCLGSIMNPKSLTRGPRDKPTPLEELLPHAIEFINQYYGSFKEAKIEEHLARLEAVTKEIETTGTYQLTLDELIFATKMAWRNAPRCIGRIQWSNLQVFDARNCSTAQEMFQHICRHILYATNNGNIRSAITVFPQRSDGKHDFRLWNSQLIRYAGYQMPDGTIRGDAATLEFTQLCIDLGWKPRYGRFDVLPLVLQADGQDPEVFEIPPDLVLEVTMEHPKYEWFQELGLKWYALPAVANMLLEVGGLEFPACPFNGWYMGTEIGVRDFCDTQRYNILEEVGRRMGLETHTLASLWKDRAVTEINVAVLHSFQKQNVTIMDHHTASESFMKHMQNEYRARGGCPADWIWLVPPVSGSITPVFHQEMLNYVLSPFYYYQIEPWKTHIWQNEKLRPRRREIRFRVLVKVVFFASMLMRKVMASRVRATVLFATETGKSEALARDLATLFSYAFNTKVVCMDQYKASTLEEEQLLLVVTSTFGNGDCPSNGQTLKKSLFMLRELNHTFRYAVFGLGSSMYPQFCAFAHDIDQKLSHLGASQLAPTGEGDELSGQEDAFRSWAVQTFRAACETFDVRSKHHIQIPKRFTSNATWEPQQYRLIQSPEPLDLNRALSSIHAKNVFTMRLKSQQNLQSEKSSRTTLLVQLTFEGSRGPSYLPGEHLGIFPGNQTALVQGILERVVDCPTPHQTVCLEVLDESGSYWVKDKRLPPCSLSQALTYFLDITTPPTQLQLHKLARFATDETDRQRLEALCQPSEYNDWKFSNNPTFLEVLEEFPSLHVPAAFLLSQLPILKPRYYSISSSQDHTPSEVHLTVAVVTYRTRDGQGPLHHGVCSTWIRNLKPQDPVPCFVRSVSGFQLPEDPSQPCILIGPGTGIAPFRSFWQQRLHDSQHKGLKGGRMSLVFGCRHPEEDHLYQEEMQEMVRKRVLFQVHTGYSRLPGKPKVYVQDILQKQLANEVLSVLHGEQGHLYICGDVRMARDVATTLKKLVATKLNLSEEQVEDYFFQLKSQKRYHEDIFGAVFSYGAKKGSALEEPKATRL
Description: Inhibition of mouse recombinant iNOS expressed in Escherichia coli using L-arginine as substrate assessed as NO production by hemoglobin capture assay

A further data set concerns the target T2, Nitric oxide synthase 3 (Bos taurus, UniProt P29473).
T2 sequence (P29473 whole entry): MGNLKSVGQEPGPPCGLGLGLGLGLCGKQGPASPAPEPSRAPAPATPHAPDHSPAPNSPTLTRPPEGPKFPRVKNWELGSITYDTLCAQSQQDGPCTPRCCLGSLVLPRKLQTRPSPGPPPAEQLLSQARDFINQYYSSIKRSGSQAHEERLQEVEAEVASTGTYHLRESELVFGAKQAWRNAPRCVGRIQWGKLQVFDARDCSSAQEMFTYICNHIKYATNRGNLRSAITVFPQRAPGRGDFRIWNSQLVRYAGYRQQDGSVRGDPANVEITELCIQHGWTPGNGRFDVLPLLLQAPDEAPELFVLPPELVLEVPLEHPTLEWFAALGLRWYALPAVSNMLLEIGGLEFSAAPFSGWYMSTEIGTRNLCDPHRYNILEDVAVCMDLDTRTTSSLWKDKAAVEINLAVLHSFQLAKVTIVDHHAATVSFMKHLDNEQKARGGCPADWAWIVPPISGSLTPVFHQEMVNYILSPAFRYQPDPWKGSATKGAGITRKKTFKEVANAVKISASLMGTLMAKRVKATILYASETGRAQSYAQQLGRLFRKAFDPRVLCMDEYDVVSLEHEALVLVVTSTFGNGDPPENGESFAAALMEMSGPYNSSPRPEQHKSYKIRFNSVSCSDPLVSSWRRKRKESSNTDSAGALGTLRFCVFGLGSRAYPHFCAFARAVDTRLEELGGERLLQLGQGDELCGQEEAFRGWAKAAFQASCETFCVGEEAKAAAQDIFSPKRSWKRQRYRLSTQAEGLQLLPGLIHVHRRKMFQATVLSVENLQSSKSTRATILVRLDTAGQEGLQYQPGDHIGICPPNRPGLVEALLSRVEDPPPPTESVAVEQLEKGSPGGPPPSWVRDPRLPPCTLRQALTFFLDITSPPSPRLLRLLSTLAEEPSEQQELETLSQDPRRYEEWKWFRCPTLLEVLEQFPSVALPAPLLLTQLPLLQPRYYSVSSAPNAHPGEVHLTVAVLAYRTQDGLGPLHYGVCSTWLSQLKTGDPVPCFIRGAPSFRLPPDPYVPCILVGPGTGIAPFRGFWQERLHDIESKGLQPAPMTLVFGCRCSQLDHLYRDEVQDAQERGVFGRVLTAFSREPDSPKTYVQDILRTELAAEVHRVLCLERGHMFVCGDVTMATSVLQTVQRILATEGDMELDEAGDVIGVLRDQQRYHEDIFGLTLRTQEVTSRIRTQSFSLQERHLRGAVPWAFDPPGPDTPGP

A further data set deals with Caco-2. To be noted: human, caco-2, 2 h, 10 µM.

Some results are limits rather than exact numbers.

Nitric oxide synthase 1, sequence (P29476 whole entry): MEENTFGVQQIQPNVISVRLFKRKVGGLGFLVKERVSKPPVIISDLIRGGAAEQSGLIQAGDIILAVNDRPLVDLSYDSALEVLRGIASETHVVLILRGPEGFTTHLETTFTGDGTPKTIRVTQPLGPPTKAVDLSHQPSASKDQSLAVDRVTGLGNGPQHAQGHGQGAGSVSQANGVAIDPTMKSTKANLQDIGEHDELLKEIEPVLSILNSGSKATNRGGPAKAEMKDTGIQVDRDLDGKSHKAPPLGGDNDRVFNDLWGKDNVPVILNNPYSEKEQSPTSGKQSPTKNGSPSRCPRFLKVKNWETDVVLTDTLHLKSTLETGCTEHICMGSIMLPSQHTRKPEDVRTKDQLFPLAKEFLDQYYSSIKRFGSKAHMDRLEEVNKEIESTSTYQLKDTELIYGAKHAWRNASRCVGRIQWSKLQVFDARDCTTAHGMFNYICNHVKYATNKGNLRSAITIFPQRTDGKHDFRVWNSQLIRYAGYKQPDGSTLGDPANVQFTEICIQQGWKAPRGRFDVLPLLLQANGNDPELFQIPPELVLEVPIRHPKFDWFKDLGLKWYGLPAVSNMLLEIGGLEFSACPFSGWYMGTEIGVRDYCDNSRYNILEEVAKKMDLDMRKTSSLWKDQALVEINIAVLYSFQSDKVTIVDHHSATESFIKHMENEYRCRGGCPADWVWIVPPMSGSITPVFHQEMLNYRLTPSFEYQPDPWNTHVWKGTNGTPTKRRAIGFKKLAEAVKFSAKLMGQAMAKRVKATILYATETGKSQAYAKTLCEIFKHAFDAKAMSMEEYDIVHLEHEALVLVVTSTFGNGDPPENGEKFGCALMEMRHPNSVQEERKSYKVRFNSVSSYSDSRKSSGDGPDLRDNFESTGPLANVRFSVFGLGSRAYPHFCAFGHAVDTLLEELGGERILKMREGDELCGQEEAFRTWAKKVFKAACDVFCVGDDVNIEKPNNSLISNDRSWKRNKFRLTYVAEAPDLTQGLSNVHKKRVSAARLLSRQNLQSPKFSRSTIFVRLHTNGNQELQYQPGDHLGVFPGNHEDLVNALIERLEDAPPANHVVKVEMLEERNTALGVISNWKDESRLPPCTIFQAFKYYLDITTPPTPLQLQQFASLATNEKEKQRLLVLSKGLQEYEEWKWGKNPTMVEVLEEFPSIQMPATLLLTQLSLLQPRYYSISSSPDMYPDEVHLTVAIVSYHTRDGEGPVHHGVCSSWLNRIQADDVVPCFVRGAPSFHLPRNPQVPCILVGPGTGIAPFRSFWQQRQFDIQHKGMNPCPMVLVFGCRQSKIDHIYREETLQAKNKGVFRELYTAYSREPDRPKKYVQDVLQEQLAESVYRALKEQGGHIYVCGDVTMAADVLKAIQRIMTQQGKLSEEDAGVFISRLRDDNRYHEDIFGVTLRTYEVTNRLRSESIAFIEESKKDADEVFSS
Description for Caco-2: Apparent permeability across basolateral to apical side in human Caco2 cells assessed as compound recovery at 10 uM for 2 hrs by LC-MS/MS analysis
Description for Nitric oxide synthase 1: Inhibition of rat recombinant nNOS expressed in Escherichia coli using L-arginine as substrate assessed as NO production by hemoglobin capture assay
Description for Nitric oxide synthase 3: Inhibition of bovine recombinant eNOS expressed in Escherichia coli using L-arginine as substrate assessed as NO production by hemoglobin capture assay

For `Nc1ccc2ccc(CCNCCc3ccc(Cl)cc3)cc2n1`, the figures for the Ratio Ki in data set [1] and in data set [2] were 47 and 91, respectively. As for `Nc1ccc2cc(CCNCCCc3cccc(F)c3)ccc2n1`, on Nitric oxide synthase 1, the Ki – broadly, a measure of affinity in units of concentration, obtained from inhibition or displacement – was determined as 4.37 µM. For the compound `Nc1ccc2ccc(CNCCCc3cccc(F)c3)cc2n1`, the Ratio Ki was 62 in data set [1] and 538 in data set [2]. Moreover, the Ki in data set [3] was 32.3 µM; on Nitric oxide synthase 3 it was 3.69 µM; at Nitric oxide synthase 1, 0.06 µM. As for `Nc1ccc2cc(CCNCc3cccc(F)c3)ccc2n1`, on Nitric oxide synthase 1, the Ki was > 5.7 µM.

For the compound `Cl.Cl.Cl.N=C(Nc1ccc(CCNCc2cccc(Cl)c2)cc1)c1cccs1`, the Drug recovery with Caco-2 is 78%. Moreover, on Nitric oxide synthase 1, the IC50 (usually the concentration at which inhibition is half-maximal) stood at 0.035 µM. As for `Nc1ccc2cc(CCNCCc3cccc(F)c3)ccc2n1`, at Nitric oxide synthase 1, the Ki is > 5.7 µM. As to `Nc1ccc2ccc(CNCCc3cccc(F)c3)cc2n1`, the Ratio Ki in data set [1] is 6.2; in data set [2] it was 124. As for `Nc1ccc2ccc(CCNCc3cccc(F)c3)cc2n1`, the figures for the Ratio Ki in data set [1] and in data set [2] were 30 and 97, respectively. With `Nc1ccc2ccc(CCNCCc3ccc(F)cc3)cc2n1`, the Ratio Ki came to 37 in data set [1] and 280 in data set [2].

Turning to `Nc1ccc2cc(CNCCc3cccc(F)c3)ccc2n1`, on Nitric oxide synthase 1, the inhibition constant Ki was > 5.7 µM.
